# Data from article PMC5828182, “Inhibition of nuclear factor of activated T cells (NFAT) c3 activation attenuates acute lung injury and pulmonary edema in murine models of sepsis” (Oncotarget, 2018).
# Columns and labels:
# calcineurin = details: derivative of cyclosporine; cited from earlier work
# From the text: (§1) Research efforts to identify NFAT inhibitors span over the last two decades but so far none of them performed well in the clinical trials.
# plaque psoriasis = details: cited from earlier work
# From the text: as §1
# [1] = tested on: NFATc3−/− and wild type mice, severe CLP sepsis; test: survival after severe (lethal) CLP; type: in vivo, mouse
# Method: Figure 5 NFATc3^−/− mice show improved arterial Oxygen saturation and survival compared to wild type mice (A) NFATc3^−/− and wild type mice (N = 5) were injected with 15 mg/kg LPS i.p and the arterial oxygen saturation was measured using STARR Life Sciences Corp. Pulse Oximeter. (B–C) NFATc3^−/− and wild type mice (N = 5 sham control group; N = 10 CLP group) were subjected to severe CLP, maintained on regular or imipenem monohydrate supplemented water and the survival was monitored over a period of 96 h. A^* p ≤ 0.001 WT-LPS vs. WT-Control; ^** p ≤ 0.01 NFATc3^−/− LPS vs. WT-LPS.
# Cecal ligation puncture (CLP) sepsis models were established according to Cuenca et al.. In an anesthetized mouse, the cecum is exposed and ligated below ileo-cecal valve and two perforations were made across the cecum using 21G needle. The cecum is then compressed to express minute amount of fecal material. To establish moderate CLP sepsis the cecum was ligated at less than 1.0 cm from the distal end and for severe sepsis about 2.0 cm of the cecum from distal end was ligated. Pulmonary edema, arterial oxygenation, and inflammation were evaluated in moderate CLP sepsis models. […] LPS (15 mg/kg) or the same volume of normal saline was administered into intraperitoneal cavity of WT or NFATc3^−/− mice and arterial oxygenation was measured by pulse oximetry. […]
# NFAT = details: cited from earlier work
# From the text: as §1
# [2] = tested on: NFAT dependent gene expression; details: liver allograft patients, after 8–12 months; cited from earlier work
# [3] = tested on: experimental colitis model in mice; details: cited from earlier work
# [4] = tested on: islet allografts between BL/6 and C3H/HeN mouse strains; details: BL/6 and C3H/HeN mice; cited from earlier work
# [5] = tested on: mouse models of Alzheimer's disease; details: mice; cited from earlier work
# diabetic db/db mice = details: cited from earlier work
compound,measurement,setting,value
C=C/C=C/C[C@@H](C)[C@@H](O)[C@H]1C(=O)N[C@@H](CC)C(=O)N(C)CC(=O)N(C)[C@@H](CC(C)C)C(=O)N[C@@H](C(C)C)C(=O)N(C)[C@@H](CC(C)C)C(=O)N[C@@H](C)C(=O)N[C@H](C)C(=O)N(C)[C@@H](CC(C)C)C(=O)N(C)[C@@H](CC(C)C)C(=O)N(C)[C@@H](C(C)C)C(=O)N1C [ISA247],calcineurin inhibition,calcineurin,more potent and effectively inhibited Calcineurin
same,phase III outcome,plaque psoriasis,did not result in to any commercial products so far
"C[C@@H](O)[C@H]1C(=O)N2C(C(=O)O)=C(SCCN=CN)C[C@H]12 [imipenem, imipenem monohydrate]",survival,"[1]; NFATc3−/− mice, imipenem in drinking water, monitored over 96 h, N = 10 CLP group",60%
same,lethality / survival of WT mice,"[1]; WT mice, imipenem (broad-spectrum antibiotic) in drinking water, 96 h",not improved any further
O=c1c(O)c(-c2ccc(O)cc2)oc2cc(O)cc(O)c12 [kaempferol],NFAT inhibition,NFAT,variable degree of NFAT inhibition
C=CC[C@@H]1/C=C(\C)C[C@H](C)C[C@H](OC)[C@H]2O[C@@](O)(C(=O)C(=O)N3CCCC[C@H]3C(=O)O[C@H](/C(C)=C/[C@@H]3CC[C@@H](O)[C@H](OC)C3)[C@H](C)[C@@H](O)CC1=O)[C@H](C)C[C@@H]2OC [Tacrolimus],NFAT dependent gene expression,[2],increased NFAT dependent gene expression
Cc1cc2c(C(C)C)c(O)c(O)c(C=O)c2c(O)c1-c1c(C)cc2c(C(C)C)c(O)c(O)c(C=O)c2c1O [gossypol],NFAT inhibition,NFAT,variable degree of NFAT inhibition
COc1cc(C[C@H]2C(=O)OC[C@@H]2Cc2ccc(OC)c(OC)c2)ccc1O [Arctigenin],NFAT inhibition,NFAT,variable degree of NFAT inhibition
11R-VIVIT,effect in experimental colitis,[3],protective effect
same,immunosuppression in islet allografts,[4],improved immunosuppression
same,microgliosis and Amyloid β peptide (Aβ) plaque load,[5],attenuated
same,albuminuria,diabetic db/db mice,markedly attenuates
same,mesangial matrix expansion and podocyte injury,diabetic db/db mice,alleviated
